Experimental data as given in BindingDB's records for patent US20250368640 (Biofront, 2025).

How the values were obtained:
[1] = target: Mitogen-activated protein kinase kinase kinase kinase 1 (Homo sapiens, UniProt Q92918); experiment: HPK1 Enzyme Inhibition Assay
Experimental: The compound was dissolved in 100% DMSO at the concentration of 10 mM. The HPK1 protein was purchased from Signal Chem (M23-11G-10). 2.5 μL per well of 2×HPK1 protein was added to assay plate containing the test compound, centrifuged at 1500 rpm for 1 minute, and then incubated at 25° C. for 60 minutes. MBP protein was purchased from Signal Chem (M42-51N) and ATP was purchased from Promega (V9102). The two were added 2.5 μL per well mixture of 2×MBP (0.2 ug/ul) and ATP (20 μM), centrifuged at 1500 rpm for 1 minute, then incubated at 25° C. for 60 minutes. Then added 5 μL of ADP-Glo from Promega (V9102) to the assay plate and depleted the unconsumed ATP for 60 minutes. Then centrifuged at 1500 rpm for 1 minute and incubated at 25° C. for 60 minutes. Finally, 10 μL of the kinase assay reagent from Promega (V9102) was added to the assay plate to convert ADP to ATP, centrifuged at 1500 rpm for 1 minute, incubate at 25° C. for 40 minutes. After 40 minutes incubation, the […] was determined.

[2] = target: T1, Aurora kinase A (Homo sapiens, UniProt O14965); experiment: Aurora A Enzyme Inhibition Assay
T1 sequence (O14965 whole entry): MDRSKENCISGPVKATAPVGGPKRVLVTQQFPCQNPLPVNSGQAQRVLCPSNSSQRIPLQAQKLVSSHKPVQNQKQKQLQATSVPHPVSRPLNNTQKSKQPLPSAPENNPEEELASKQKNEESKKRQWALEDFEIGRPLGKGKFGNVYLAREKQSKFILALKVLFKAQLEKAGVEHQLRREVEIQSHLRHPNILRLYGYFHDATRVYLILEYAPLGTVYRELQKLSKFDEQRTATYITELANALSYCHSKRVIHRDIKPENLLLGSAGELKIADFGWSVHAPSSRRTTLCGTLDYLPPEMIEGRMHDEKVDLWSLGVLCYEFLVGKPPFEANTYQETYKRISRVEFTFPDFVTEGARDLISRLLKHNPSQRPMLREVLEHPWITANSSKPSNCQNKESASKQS
Experimental: The compound was dissolved in 100% DMSO at the concentration of 10 mM. The Aurora A protein was purchased from Carna (05-101). 10 μL per well of 2.5×Aurora A protein was added to assay plate containing the test compound, centrifuged at 1000 rpm for 1 minute, and then incubated at 25° C. for 10 minutes. Peptide 21 was purchased from GL Biochem (116370) and ATP was purchased from Promega (V9102). The two were added 15 μL per well mixture of 1.67× peptide 21 (final conc. is 3 μM) and ATP (final conc. is 14.58 μM), centrifuged at 1000 rpm for 1 minute, then incubated at 25° C. for 40 minutes. Then added 30 μL of stop buffer (100 mM HEPES pH7.5, 0.015% Brij-35, 0.2% Coating Reagent 3, 50 mM EDTA) to the assay plate and centrifuged at 1000 rpm for 1 minute. the product was determined.

Chain of Mitogen-activated protein kinase kinase kinase kinase 1 (Q92918 whole entry): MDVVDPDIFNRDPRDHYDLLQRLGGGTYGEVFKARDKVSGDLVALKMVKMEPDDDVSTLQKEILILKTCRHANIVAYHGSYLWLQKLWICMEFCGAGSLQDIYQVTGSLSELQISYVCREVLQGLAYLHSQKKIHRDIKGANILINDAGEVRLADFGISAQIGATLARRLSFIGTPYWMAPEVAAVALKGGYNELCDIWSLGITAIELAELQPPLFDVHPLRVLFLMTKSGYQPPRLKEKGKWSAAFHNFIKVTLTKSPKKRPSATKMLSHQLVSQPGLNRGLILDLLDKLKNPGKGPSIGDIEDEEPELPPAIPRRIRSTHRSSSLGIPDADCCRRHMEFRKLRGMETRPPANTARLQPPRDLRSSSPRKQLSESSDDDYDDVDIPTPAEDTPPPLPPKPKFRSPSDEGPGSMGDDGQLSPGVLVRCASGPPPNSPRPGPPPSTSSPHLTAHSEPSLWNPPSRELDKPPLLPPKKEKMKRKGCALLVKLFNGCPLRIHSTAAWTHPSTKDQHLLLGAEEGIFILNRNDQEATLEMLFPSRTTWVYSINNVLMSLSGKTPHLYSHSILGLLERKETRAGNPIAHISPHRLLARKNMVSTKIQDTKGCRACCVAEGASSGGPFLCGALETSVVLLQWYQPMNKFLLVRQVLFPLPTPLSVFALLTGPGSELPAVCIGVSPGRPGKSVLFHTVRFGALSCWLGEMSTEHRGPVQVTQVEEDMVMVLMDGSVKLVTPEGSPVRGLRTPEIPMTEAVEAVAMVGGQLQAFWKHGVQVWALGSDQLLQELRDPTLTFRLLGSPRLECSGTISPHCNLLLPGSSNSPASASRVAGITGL

SMILES	IC50 [1]	IC50 [2]
CCc1c[nH]c2ncc(-c3cccc(N4CCCN(CCN5CC(c6ccc7c(c6)CN(C6CCC(=O)NC6=O)C7=O)C5)C4=O)c3)c(Cl)c12 (centres undefined)	1.1 nM	10.1 nM
CCc1c[nH]c2ncc(-c3cccc(N4CCCN(CCN5CC(c6ccc7c(c6)C(=O)N(C6CCC(=O)NC6=O)C7)C5)C4=O)c3)c(Cl)c12 (centres undefined) [US20250368640, Example 1]	0.76 nM	14.3 nM
